Measured values from the NIST ThermoML archive (doi:10.1016/j.tca.2014.05.014).

Assay: mn = molality of the nth substance listed, in mol/kg
Conditions: 101 kPa, Liquid; for speed of sound: Frequency=3 MHz, Sing-around technique in a fixed-path interferometer; for mass density: Vibrating tube method

CC(=O)NCC(=O)O [N-acetylglycine] + O
Conditions	mass density, 288.15 K [kg/m3]	mass density, 293.15 K [kg/m3]	mass density, 298.15 K [kg/m3]	mass density, 303.15 K [kg/m3]	mass density, 308.15 K [kg/m3]	speed of sound, 288.15 K [m/s]	speed of sound, 293.15 K [m/s]	speed of sound, 298.15 K [m/s]	speed of sound, 303.15 K [m/s]	speed of sound, 308.15 K [m/s]
m1 = 0.0203	1000.3	999.25	997.843	996.325	994.871	1467.5	1483.6	1497.7	1510	1520.3
m1 = 0.06014	1001.63	1000.6	999.038	997.499	996.032	1469.4	1485.4	1499	1511.4	1521.5
m1 = 0.1002	1002.81	1001.87	1000.36	998.819	997.262	1471.4	1486.8	1500.5	1512.4	1522.6
m1 = 0.1403	1004	1003.13	1001.63	1000.17	998.641	1473.3	1488.9	1502.1	1514.2	1524
m1 = 0.1695	1004.75	1003.97	1002.73	1001.25	999.567	1474.8	1489.9	1503.3	1514.9	1524.9
m1 = 0.2002	1005.54	1004.9	1003.76	1002.59	1001.25	1475.9	1491.4	1504.2	1515.6	1525.8
